Assay results taken from a melting point compilation (Tetko et al.; mined from patent text by program, amines drawn as free bases though some values may be those of a salt).

Row | Compound | melting point
1 | C[C@H](O)Cn1ccc2cc(F)c(Cl)cc21 | 99 to 101 °C
2 | CSc1ncncc1C(O)c1ccccc1F (stereo not drawn) | 176 to 177 °C
3 | CCCCCCCCCCCCOc1cc(N)c(OCCCCCCCCCCCC)cc1N | 75 to 76 °C
4 | CCCCc1nnc(S(=O)Cc2ccc(OC)cc2)n1Cc1ccc(OC(C(=O)O)c2ccccc2)cc1 (stereo not drawn) | 74 to 75 °C
5 | CON=C(C)c1c(C)oc2c(-n3c(=O)cc(C(F)(F)F)n(C)c3=O)c(F)cc(Cl)c12 | 65 to 67 °C
6 | Cn1cc(SCc2ccccc2)c(=O)c(-c2ccccc2)c1 | 155 to 157 °C
7 | CCOC(=O)C(C)C(NC(C)=O)C(C(C)=O)C(=O)OC (stereo not drawn) | 93 to 96 °C
8 | CCCCCCCCCCn1c(C)cc(C)c(C(=O)O)c1=O | 67.5 to 72 °C
9 | CC(C)(C)CCP1C(O)C(O)P(CCC(C)(C)C)C(O)C1O (stereo not drawn) | 186 to 210 °C
10 | CC(C)(C(=O)c1ccc(F)cc1)N1CCOCC1 | 63 to 66 °C
11 | Cc1noc(CC(N)=O)n1 | 77 to 77.5 °C
12 | CCOC(=O)C(=CNc1ccc(F)c(-c2ccncc2)n1)C(=O)OCC | 140 to 141 °C
13 | COc1ccc(C(=O)/C=C/c2ncn(C(c3ccccc3)(c3ccccc3)c3ccccc3)c2C)c2ccccc12 | 235 to 237 °C
14 | CC(=O)Nc1ncc(Sc2nnc(C)s2)s1 | 242 to 244 °C
15 | COc1ccc2c(c1)c(Cc1nc(-c3ccc(Cl)cc3)cs1)c(C)n2C(=O)c1ccc(Cl)cc1 | 186 to 188 °C
16 | Cc1cc(C)c2c(c1C)OC(=O)C2c1ccc(C(C)C)cc1 (stereo not drawn) | 107 to 108 °C
17 | Cc1c(F)c(F)c(-n2ncc(C#N)c2N)c(F)c1F | 169 to 170 °C
18 | Nc1nc(COc2cccc(Cl)c2Cl)nc2nccnc12 | 216 to 218 °C
19 | CS(=O)(=O)c1ccc(-c2cnn(CC(F)(F)F)c(=O)c2Cl)cc1 | 221 to 222 °C

Row | Compound | melting point
20 | Cc1cc2ncnn2nc1OCC(C)(C)CCS(N)(=O)=O | 214 to 215 °C
21 | CCC1Cc2cc(OC)c(Cl)c(Cl)c2C1=O (stereo not drawn) | 146 to 147 °C
22 | CN1CC=C(c2c[nH]c3ccc(CCNS(C)(=O)=O)cc23)CC1 | 170 to 172 °C
23 | Cc1cc(O)cc(C)c1N=Cc1ccccc1O | 145 to 147 °C
24 | CS(=O)(=O)c1ccc(-c2[nH]c3ccccc3c2-c2ccc(Br)cc2)cc1 | 225 to 226 °C
25 | O=C(O)CCCCCCCCCC=Cc1ccco1 | 38 to 39 °C
26 | CCc1c(C)c2c(OC)cc(-c3ccc(C(C)C)cc3)cc2oc1=O | 115 °C
27 | COc1c(I)cc(-c2c3ccccc3cc3sc4ccccc4c23)cc1I | 228 to 230 °C
28 | O=C(Nc1ccc(F)cc1F)c1cccc(Oc2cccc(Cl)c2)n1 | 116 to 117 °C
29 | CN1CC(CN2CC(=O)NC2=O)C=C2c3cccc4[nH]cc(c34)CC21 (stereo not drawn) | 282 to 284 °C
30 | CCOC(=O)CSc1nc(Cl)c(C)c(Cl)n1 | 66 to 70 °C
31 | COc1ccc(Cl)cc1NC(=NN)c1cc(C(F)(F)F)cc(C(F)(F)F)c1 | 117 to 120 °C
32 | Cc1nc(-c2ccc(OCCCc3ccccc3)cc2)no1 | 78.5 to 79 °C
33 | Nc1ncc2c(n1)-c1ccc(Cl)cc1C(c1ccccc1)=NC2 | 209 to 210 °C
34 | COC1=C(OC)C(=O)c2c(C#N)cccc2C1=O | 171 to 172 °C
35 | CC(Cl)c1cc(F)ccc1Oc1nc2ccc(-n3cc(-c4ccccc4)nn3)cc2cc1Cc1ccccc1 (stereo not drawn) | 151 to 152 °C
36 | CSc1nnc(-c2ccc(F)cc2)c(-c2ccc(N(C)C)cc2)n1 | 144 to 146 °C
37 | Nc1nc2ccc(CO)cc2o1 | 148 to 150 °C
38 | CC1CC(=Cc2cc(C(C)(C)C)c(O)c(C(C)(C)C)c2)C(=O)N1C(N)=O (stereo not drawn) | 195 to 196 °C

Row | Compound | melting point
39 | Cc1ccc(C(=O)NCCN(C)C)cc1-n1c(C)cc(OCc2ccc(F)cc2CNC(=O)Nc2cc(C(C)(C)C)nn2-c2ccc(Cl)c(O)c2)c(Cl)c1=O | 177 to 178 °C
40 | CCOc1ccccc1OCC(O)CNCCNc1cnn(C)c(=O)c1Cl (stereo not drawn) | 120 °C
41 | Nc1ccc(-c2n[nH]c(-c3ccncc3)n2)cc1 | 251 to 252 °C
42 | COc1ccc(-c2cc(CO)c(C)o2)cc1 | 62 to 64 °C
43 | COC(=O)c1cccc2c1ccn2Cc1ccc(OCc2ccc3ccccc3n2)cc1 | 128 to 131 °C
44 | COc1ccc(C2(O)c3cccc(O)c3C(=O)c3c(O)cccc32)cc1 | 172 to 173 °C
45 | OCC1OC(OCc2ccccc2)C(OCc2ccccc2)C(OCc2ccccc2)C1OCc1ccccc1 (stereo not drawn) | 99 to 101 °C
46 | Cn1c(-c2cnc(-c3ccccc3)nc2)cnc1-c1ccccc1 | 211 °C
47 | CCCCOc1cc(CO)cc(N)c1Cc1ccccc1 | 105 to 107 °C
48 | CC(=O)OCC(=O)Nc1cc(C#N)cc(NC(=O)COC(C)=O)c1Cl | 193 to 195 °C
49 | Cc1cc(-c2cccc3[nH]ccc23)nc(N)n1 | 242 to 244 °C
50 | Cc1c(N=C2NCCN2)cc(Br)cc1NS(C)(=O)=O | 262 °C
51 | COc1ccc(Cc2ccc3nc(N)nc(N)c3c2)cc1OC | 215 to 217 °C
52 | COc1ccc(S(=O)(=O)n2ccc3ccccc32)cc1 | 124 to 126 °C
53 | CCCCc1n[nH]c(=S)n(N)c1=O | 131 °C
54 | CC(C)(C)c1cc(CN2CC(O)C2)cc(C(C)(C)C)c1O | 139 to 142 °C
55 | CCOC(=O)c1ncc(C)nc1O | 153 °C
56 | CCCCCCCCCCCCC/C=C1\C(=O)OCC1(CO)COC(C)=O (stereo not drawn) | 48 °C
57 | Cc1ccnc(Cl)c1C(N)=O | 168 to 170 °C

Results, then the molecule that gave them:

Row | melting point | Compound
58 | 95 to 97 °C | O=C1COc2ccccc2CN1Cc1ccccc1
59 | 74 to 75 °C | COc1ccc(OCc2ccc(C(=O)c3ccccc3)cc2)cc1OC
60 | 191 to 192 °C | COc1cc(C(=O)N2Cc3cccn3Cc3ccccc32)ccc1[N+](=O)[O-]
61 | 67 to 69 °C | CC(=Cc1ccccc1)c1ccc2c(c1)SCCC2(C)C
62 | 196 °C | Cc1ccc2c(c1)CC(n1ccnc1C(N)=O)C2=O (stereo not drawn)
63 | 170 to 172 °C | CC(C)Oc1cccc(N2CC(=O)NC(=O)N2)c1
64 | 118 to 119 °C | COC(=O)c1ccc(-n2c(C)ccc2C#N)cc1
65 | 124 to 129 °C | CC1CC2C3CCC4=CC(=O)C=CC4(C)C3=CCC2(C)C1C(=O)COS(=O)(=O)c1ccc(Br)cc1 (stereo not drawn)
66 | 128 °C | OC(Cn1cncn1)(c1ccc(Cl)cc1)C1(F)CC1 (stereo not drawn)
67 | 224 to 226 °C | CN1CCN(c2cccc3c2C[C@H](NC(=O)c2ccc(C4CCCCC4)cc2)CC3)CC1
68 | 197 to 199 °C | N#CC(NC(=O)c1cccn2cc(-c3ccccc3)nc12)c1ccco1 (stereo not drawn)
69 | 212 to 215 °C | CC1CC(N)=NN1c1nc2ccccc2s1 (stereo not drawn)
70 | 117 to 119 °C | O=C(CN1C(=O)C2(COc3cc4c(cc32)OCCO4)c2ccccc21)Nc1ccccc1F (stereo not drawn)
71 | 79.5 °C | CN1CCN(c2nn3ccnc3c3c2CCCC3)CC1
72 | 124 to 125 °C | COc1ccc(Cc2nnc(N[C@H]3CC[C@H](C(C)C)CC3)c3ccccc23)cn1
73 | 78 to 79 °C | CS(=O)(=O)N1C[C@H](S)C[C@H]1COc1ccccc1
74 | 75 to 76 °C | COc1ccc2c(c1)CCC1(CCCCN1C(=O)C(F)(F)F)C2 (stereo not drawn)
75 | 115 to 117 °C | CCOC(=O)C(C)(C)c1cn2nc(NCCCN3CCC(NC(c4ccccc4)c4ccccc4)CC3)ccc2n1
76 | 137 to 139 °C | NC(=O)C1CN(Cc2nc(-c3ccccc3)c(-c3ccccc3)o2)CCN1CC(=O)Nc1c(Cl)cc(N)cc1Cl (stereo not drawn)
77 | 86 to 88 °C | C=C(c1ccc(NC(=O)OC(C)(C)C)c(C)c1)C(F)(F)F
78 | 118 to 119 °C | O=C(Nc1ccc2c(c1)C(=O)C1(CC1)O2)OCc1ccccc1
79 | 147 to 150 °C | CC1(C)CCC(C)(C)c2cc(-c3cc(-c4ccc(C(=O)O)cc4)ccc3OCCCCCCCCCO)ccc21
80 | 50 to 51 °C | COc1ccc(C2COC(=O)C2CSC2CCCCC2)cc1 (stereo not drawn)

Row | melting point | Compound
81 | 105 to 108 °C | O=CC(=Cc1ccc([N+](=O)[O-])s1)c1ccc(Br)cc1
82 | 220 to 222 °C | Cc1ccc(N2CCN(Cc3c[nH]c4ncccc34)CC2)cc1
83 | 97 °C | CC(=O)N1CC(=O)NC(=O)N1Cc1ccc(Cl)cc1
84 | 80 to 85 °C | N#Cc1ccc(C(=O)N2CCC[C@H]2C(=O)O)cc1
85 | 95 to 96 °C | CC(C)(C)OC(=O)N1CCN(c2ccc(N)cc2)CC1
86 | > 300 °C | CC1(C)C(=O)Nc2ccc(NC(=O)c3ccncc3)cc21
87 | 170 to 175 °C | CC1CN(c2ccc(S(N)(=O)=O)cc2)CC(C)N1CCC1OCCc2ccccc21 (stereo not drawn)
88 | 139 to 142 °C | COc1ccccc1N1CCN(CNC(=O)c2cccc(C)c2)CC1
89 | 95 to 97 °C | O=[N+]([O-])c1ccc(CCN2CCC(N3CCc4ccccc43)CC2)cc1
90 | 130 °C | CCOc1ccc2cc(N3CC(COC)OC3=O)ccc2c1 (stereo not drawn)
91 | 160 to 162 °C | COc1ccc(CNC(=O)c2cn3c(=O)n(Cc4ccccc4)c(=O)c(C)c3s2)cc1
92 | 171 to 172 °C | Cc1ccc2c(c1)C1=NN(c3ccc(OCCCN4CCCCC4)cc3)C(=O)CC1CC2 (stereo not drawn)
93 | 83 to 85 °C | CC1CCCN1CCCN1C(=C(C#N)C#N)N(CCCN2CCCC2C)c2ccccc21 (stereo not drawn)
94 | 47 to 50 °C | O=C(c1c(F)cccc1F)N1COCN(c2ccc(SC(F)(F)C(F)(F)F)cc2F)C1=O
95 | 63 to 73 °C | CCCCNS(=O)(=O)C[C@@H](O)C(O)[C@@H](CC1CCCCC1)NC(=O)[C@H](CC(C)C)NC(=O)CCc1ccccc1 (relative stereo)
96 | 180 °C | CC1CCCN1C1CCN(c2ccc(C(=O)NC3CCOCC3)cc2)C1 (stereo not drawn)
97 | 143 to 144 °C | O=C(CCCN1CCC(NC(=O)c2ccccc2)CC1)c1ccccc1
98 | 136 to 138 °C | CCC(=O)C1=C(O)CC(c2cccc(Oc3ccc(S(C)(=O)=O)cc3)c2)CC1=O (stereo not drawn)
99 | 227 to 228 °C | CC(C)(CCC#N)c1ccc(C(=O)Nc2cn3c4c(ccc3n2)OCC4)cc1
100 | 110 to 112 °C | CC1=NCCc2c1n(-c1ccccc1)c1ccccc21
101 | 188 to 190 °C | COC(=O)c1ccc(OCC2CN(c3ccc(NC(C)=O)cc3)C(=O)O2)cc1 (stereo not drawn)
102 | 145 °C | COc1c(C)cc(C(=O)c2cc(-c3ccc(NC(C)=O)cc3)c(N3CCOCC3)s2)nc1C
103 | 146 to 147 °C | CC(=O)Nc1ccc(C(C)=O)cn1
